These results are taken from patent publication US8017350B2, “Glimepiride- and insulin-induced glycosylphosphatidylinositol-specific phospholipase C regulation” (Sanofi-Aventis Deutschland GmbH, priority 2004, dated 2011).

SMILES strings stand for the structures.

The target of one experiment is T1, PI-PLC (B. cereus) (Bacillus cereus, UniProt P14262).
T1 construct: purchased SigmalAldrich (Deisenhofen, Germany)
In words: PI-PLC (B. cereus) assay, AChE substrate, TX-114 partitioning. The class given is biochemical. As to the method:
GPI-PLD (rat serum) was assayed according to “Hari et al. (1997) Biochim. Biophys. Acta 1355: 293-302” by incubation with 10 μl of human placental aP solution (100 U/ml in 10 mM Hepes/NaOH, pH 7.0, 150 mM NaCl) in 100 μl of 200 mM Tris/maleate (pH 7.0) and 1% Nonidet P-40 for 10 min at 37° C. and subsequent termination of the reaction by addition of 0.4 ml of ice-cold stop buffer (10 mM Hepes/NaOH, pH 7.0, 150 mM NaCl, 0.1 mM MgCl2 and 0.01 mM zinc acetate). GPI-PLC (T. brucei) was assayed as described in “Mensa-Wilmot et al. (1995) Methods Enzymol. 250: 641-655” by incubation with 5 μl of human placental aP solution (see above) in 50 μl of 50 mM Tris/HCl (pH 8.0), 0.25% Nonidet P-40 and 5 mM EDTA for 30 min at 37° C. and subsequent termination of the reaction by addition of 0.45 ml of stop buffer. PI-PLC (B. cereus) and adipocyte GPI-PLC (5-25 μg plasma membranes or hc/lcDIGs) were assayed by incubation with 10 μl of bovine erythrocyte acetylcholinesterase (AChE) solution (12 U/ml in 10 mM Tris/HCl, pH 7.4, 144 mM NaCl, 0.1% TX-100) in 100 μl of 20 mM Hepes/KOH (pH 7.8), 144 mM NaCl, 0.1% TX-100, 0.2 mM MgCl2 for 1 h at 25° C. and subsequent termination by adding 5 μl of glacial acetic acid and then 0.4 ml of 10 mM Tris/HCl (pH 7.4), 144 mM NaCl. Each reaction mixture was subjected to TX-114 partitioning (see below).
Pelleted hc/lcDIGs (10-50 μg protein) or (G)PI-PLC reaction mixtures (0.5 ml) were separated into amphiphilic and hydrophilic proteins using partitioning between TX-114-enriched and depleted phases according to “Bordier, C., (1981) J. Biol, Chem. […]” by suspending in 1 ml of ice-cold TX-114 (1%), 25 mM Tris/HCl (pH 7.4), 144 mM NaCl or mixing with 0.5 ml of ice-cold TX-114 (2%), respectively. After incubation for 1 h on ice, the mixture was layered onto a cushion of 0.4 ml of 0.25 M sucrose and 25 mM Tris/HCl (pH 7.4) on ice. Phase separation was induced by warming up to 37° C. and subsequent centrifugation (10,000×g, 1 min). After re-extraction of the lower TX-114-enriched phase, aliquots of the pooled upper TX-114-depleted phase were measured for 5′-Nuc, aP and AChE activity or precipitated (15 polyethylene glycol 4000) for SDS-PAGE analysis.
Table 1: GPI-PLC of hcDIGs from rat adipocytes, GPI-PLC from T. brucei and PI-PLC from B. cereus were incubated with solubilized and partially purified bovine erythrocyte AChE or human placental aP in the absence or presence of increasing concentrations (0.05 μM-1 mM) of the inhibitors indicated under appropriate conditions (see Materials and Methods). Cleavage rate was calculated from the amount of hydrophilic AChE and aP activity recovered with the TX-114-depleted phase upon TX-114 partitioning. Means+SD from at least 3 independent incubations with partitioning/enzyme assays in quadruplicate are given. n.a., not applicable.
Purified (G)PI-PLC/D from B. cereus, rat serum and T. brucei as well as total plasma membranes (PM) and hc/lcDIGs prepared from isolated rat adipocytes were incubated (10 min, 30° C.) with increasing concentrations of GPI-2350 and then assayed for amphiphilic-to-hydrophilic conversion of AChE and aP by TX-114 partitioning (see Materials and Methods). The lipolytic activity was calculated as % of the control reaction in the absence of GPI-2350 (set at 100%). Means+SD of at least 4 independent incubations with AChE and aP activity measurements in triplicate each are given.

In experiment [1] the test system is pp59Lyn and IRS-1 in rat adipocytes. Put plainly: Tyrosine phosphorylation of pp59Lyn and IRS-1. It counts as cell-based. Conditions: GPI-2350; IRS-1 tyrosine phosphorylation and glucose transport. The method, then: Polypeptides separated by SDS-PAGE were transferred to polyvinylidene difluoride membranes using the semidry procedure as described in “Müller, G. et al., (2001) Mol. Cell. Biol. 21: 4553-4567”. Washed membranes were incubated with anti-caveolin-1 (1:2000), anti-pp59^Lyn (1:1250), anti-aP (1:500), anti-5′-Nuc (1:750) and anti-IRS-1 (1:2000) antibodies for 4 h at 15° C. Washed membranes were incubated with horseradish peroxidase-coupled secondary goat anti-mouse (1:2000) or goat anti-rabbit IgG (1:4000) antibodies. Labeled proteins were visualized by enhanced chemiluminescence.
FIG. 7: Effect of GPI-2350 on the glimepiride/insulin-induced activation of signaling proteins. Isolated rat adipocytes were treated (5 min, 37° C.) without or with GPI-2350 (Panels A, 50 μM; Panels B, increasing conc.) and then incubated (120 min, 37° C.) in the absence or presence of insulin (10 nM) or glimepiride (20 μM). IRS-1 and pp59^Lyn were immunoprecipitated from the defatted postnuclear infranatant (see Materials and Methods) and solubilized combined hc/lcDIGs, respectively, and then immunoblotted for phosphotyrosine. […]

T1 sequence (P14262 32-329 limits assumed): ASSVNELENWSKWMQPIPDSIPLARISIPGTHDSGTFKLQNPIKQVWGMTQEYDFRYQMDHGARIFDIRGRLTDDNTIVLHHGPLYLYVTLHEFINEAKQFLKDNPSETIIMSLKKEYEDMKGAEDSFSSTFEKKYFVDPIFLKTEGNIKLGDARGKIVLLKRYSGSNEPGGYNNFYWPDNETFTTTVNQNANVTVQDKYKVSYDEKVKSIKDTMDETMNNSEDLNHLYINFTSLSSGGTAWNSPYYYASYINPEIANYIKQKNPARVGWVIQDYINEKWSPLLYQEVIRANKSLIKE

`CCCCCCCCCCCCP1(=O)O[C@@H]2[C@H](O)[C@@H](O)[C@H](O)[C@@H](O)[C@@H]2O1` (some centres unmarked) [GPI-2350, myo-inositol-1,2-cyclo-dodecylphosphonic acid]: the IC50 (usually the concentration at which inhibition is half-maximal) was 10 to 20 µM against PI-PLC (B. cereus) (IC50, Table 1, inhibitor 0.05 μM-1 mM) and 10 µM on PI-PLC (B. cereus) (apparent IC50, FIG. 2). Also, the inhibition (as a rule, how much of the control response was suppressed) at 1000 µM on PI-PLC (B. cereus) (read-out: inhibition % at 1 mM) turned out to be 75%. Also, the “reversal of half-maximal inhibition” value at PI-PLC (B. cereus) (upon 10-fold dilution with excess of fresh GPI-protein substrate) is recorded as “completely reversed”. For the same molecule, the “effect on stimulation by other insulin-mimetic stimuli” value in experiment [1] was “neither IRS-1 tyrosine phosphorylation nor glucose transport (Tab. 3) by these stimuli was affected significantly”.
